One assay concerns eyelashes. As to conditions: Lumigan ophthalmic solution, applied in the FDA approved manner; cited from earlier work.
In another assay the test system is human skin. The assay is described as follows: Oral bimatoprost tablets in a patient, skin color. The format is in vivo. The conditions noted are these: oral tablet, 2 x 100 mg per dose, 3 doses per day, four months. An excerpt: A patient began taking bimatoprost as a tablet.

For the substance “cyclopentane N-ethyl heptanamide-5-cis-2-(3α-hydroxy-5-phenyl-1-trans-pentenyl)-3,5-dihydroxy, [bimatoprost, cyclopentane N-ethyl heptanamide-5-cis-2-(3α-hydroxy-5-phenyl-1-trans-pentenyl)-3,5-dihydroxy, [1α,2β,3α,5α]]”, in the assay on eyelashes, the growth of eyelashes result is recorded as “effective to increase the growth of eyelashes”. Besides, in the assay on human skin, the “skin color after treatment” value was “turned to a dark brown color”.

(Values after patent US7070768B2, “Method for imparting artificial tan to human skin” (Allergan, Inc., priority 2003, dated 2006).)
